For one assay, the system named is Aspergillus fumig. The assay can be described thus: Antimycotic in vitro activity, series dilution test (MIC). Type of assay: cell-based, Aspergillus fumigatus. Conditions: 5×10^4 germs/ml, Sabouraud's milieu d'épreuve, 20° C., 96 hours, read-out: MIC values in γ/ml of nutrient medium, Aspergillus fumig. The method, then:
(§1) Antimycotic in vitro activity Description of the experiment: The in vitro tests were carried out in a series dilution test with germ inocula of an average of 5×10^4 germs/ml of substrate. The nutrient medium was (a) for dermatophytes and moulds: Sabouraud's milieu d'/e/ preuve and The incubation temperature was 20° C. and the duration of incubation was 24 to 96 hours, in the case of yeasts, and 96 hours in the case of dermatophytes and moulds.

The subject of a further assay is Trichophyton mentagr. The assay is described as above. It is filed as cell-based, Trichophyton mentagrophytes. Conditions: 5×10^4 germs/ml, Sabouraud's milieu d'épreuve, 20° C., 96 hours, read-out: MIC values in γ/ml of nutrient medium, Trichophyton mentagr. The method, then: as §1
Assay [1] deals with dermatophytes and moulds, yeasts. The assay can be described thus: Antimycotic in vitro activity, overall comparison with known compounds. Conditions: in vitro series dilution test. It is filed as cell-based. The method, then: Antimycotic in vitro activity
Description of the experiment:
The in vitro tests were carried out in a series dilution test with germ inocula of an average of 5×10^4 germs/ml of substrate. The nutrient medium was
(a) for dermatophytes and moulds:
Sabouraud's milieu d'/e/ preuve and
meat extract/glucose broth.
The incubation temperature was 20° C. and the duration of incubation was 24 to 96 hours, in the case of yeasts, and 96 hours in the case of dermatophytes and moulds.

The next assay has as its system Candida albicans. The assay can be described thus: Antimycotic in vitro activity, series dilution test (MIC). Type of assay: cell-based. Conditions: 5×10^4 germs/ml, meat extract/glucose broth, 20° C., 24 to 96 hours, read-out: MIC values in γ/ml of nutrient medium, Candida albicans. The method, then: (§2) Antimycotic in vitro activity Description of the experiment: The in vitro tests were carried out in a series dilution test with germ inocula of an average of 5×10^4 germs/ml of substrate. The nutrient medium was (b) for yeasts: meat extract/glucose broth. The incubation temperature was 20° C. and the duration of incubation was 24 to 96 hours, in the case of yeasts, and 96 hours in the case of dermatophytes and moulds.

For another assay, the system named is Torulopsis glabrata. Described as above. Type of assay: cell-based. Conditions: Nakaseomyces glabratus, 5×10^4 germs/ml, meat extract/glucose broth, 20° C., 24 to 96 hours, read-out: MIC values in γ/ml of nutrient medium, Torulopsis glabrata. The method, then: as §2
Another assay relates to Microsporum canis. The description is as above. Type of assay: cell-based. Conditions: 5×10^4 germs/ml, Sabouraud's milieu d'épreuve, 20° C., 96 hours, read-out: MIC values in γ/ml of nutrient medium, Microsporum canis. The protocol: as §1

Values after ≈ are worked out from the molar mass of the structure shown.

`CC1(C)CCOC1=C(Oc1ccc(-c2ccccc2)cc1)n1ccnc1` [Example 7]: the MIC in the assay on Aspergillus fumig., in the assay with Trichophyton mentagr., with Candida albicans, with Torulopsis glabrata and in the assay with Microsporum canis was under 1 µg/mL throughout. Moreover, the “antimycotic action compared with compounds (A), (B), (C) and (D)” value in assay [1] was “better antimycotic action”.

In the case of `CC1(C)CCOC1=C(Oc1ccc(F)cc1)n1ccnc1` [Example 2], the MIC in the assay with Aspergillus fumig. is 2 µg/mL (≈ 6.94 µM); with Trichophyton mentagr., under 1 µg/mL; with Candida albicans, under 1 µg/mL; in the assay on Torulopsis glabrata, 2 µg/mL (≈ 6.94 µM); in the assay with Microsporum canis, under 1 µg/mL. For the same compound, the “antimycotic action compared with compounds (A), (B), (C) and (D)” value in assay [1] was “better antimycotic action”.

With `CC1(C)CCOC1=C(Oc1ccc(Cl)cc1)n1ccnc1` [Example 1, (4-chlorophenoxy)-(imidazol-1-yl)-3,3-dimethyltetrahydrofuran-2-ylidene-methane], the MIC in the assay on Aspergillus fumig. was under 1 µg/mL; with Trichophyton mentagr., under 1 µg/mL; in the assay on Candida albicans, 8 µg/mL (≈ 26.2 µM); in the assay with Torulopsis glabrata it was 2 µg/mL (≈ 6.56 µM); in the assay on Microsporum canis, under 1 µg/mL. In addition, in assay [1], the “antimycotic action compared with compounds (A), (B), (C) and (D)” value is given as “better antimycotic action”.

In the case of `CC(C)(C)C(O)C(=Cn1ccnc1)Oc1ccc(F)cc1` (centres unmarked) [(A), reference compound], the MIC with Aspergillus fumig. is over 64 µg/mL; in the assay on Trichophyton mentagr., 1 µg/mL (≈ 3.44 µM); in the assay on Candida albicans it was 32 µg/mL (≈ 110 µM); in the assay with Torulopsis glabrata it was 64 µg/mL (≈ 220 µM); in the assay on Microsporum canis it was 64 µg/mL (≈ 220 µM).

Take `CC1(C)CCOC1=C(Oc1ccc(Cl)cc1Cl)n1ccnc1` [Example 3]: the MIC in the assay with Aspergillus fumig., in the assay with Trichophyton mentagr., in the assay with Candida albicans, with Torulopsis glabrata and with Microsporum canis was under 1 µg/mL each time. Further, the “antimycotic action compared with compounds (A), (B), (C) and (D)” value in assay [1] is on record as “better antimycotic action”.

For `CC(C)(C)C(O)C(=Cn1cncn1)Oc1ccc(Cl)cc1Cl` (centres unmarked) [(D), reference compound], the MIC in the assay with Aspergillus fumig. is 64 µg/mL (≈ 187 µM); in the assay on Trichophyton mentagr., under 1 µg/mL; in the assay with Candida albicans, 32 µg/mL (≈ 93.5 µM); with Torulopsis glabrata, 32 µg/mL (≈ 93.5 µM); in the assay with Microsporum canis, 64 µg/mL (≈ 187 µM).

Consider `CC(C)(C)C(O)C(=Cn1ccnc1)Oc1ccc(Cl)cc1Cl` (centres unmarked) [(C), reference compound], for which the MIC with Aspergillus fumig. was over 64 µg/mL; with Trichophyton mentagr. it was under 1 µg/mL; in the assay on Candida albicans, 16 µg/mL (≈ 46.9 µM); in the assay on Torulopsis glabrata, 16 µg/mL (≈ 46.9 µM); in the assay with Microsporum canis, 32 µg/mL (≈ 93.8 µM).

As for `CC(C)(C)C(O)C(=Cn1ccnc1)Oc1ccc(-c2ccccc2)cc1` (centres unmarked) [(B), reference compound], the MIC was over 64 µg/mL with Aspergillus fumig.; under 1 µg/mL with Trichophyton mentagr.; 32 µg/mL (≈ 91.8 µM) in the assay with Candida albicans; over 64 µg/mL in the assay with Torulopsis glabrata; 32 µg/mL (≈ 91.8 µM) in the assay on Microsporum canis.

In the case of `CC1(C)CCOC1=C(Oc1ccc(Cl)cc1)n1cncn1` [Example 11], the MIC was over 64 µg/mL in the assay with Aspergillus fumig.; under 1 µg/mL with Trichophyton mentagr.; 4 µg/mL (≈ 13.1 µM) with Candida albicans; 16 µg/mL (≈ 52.3 µM) in the assay on Torulopsis glabrata; 16 µg/mL (≈ 52.3 µM) in the assay with Microsporum canis. Moreover, the “antimycotic action compared with compounds (A), (B), (C) and (D)” value in assay [1] was “better antimycotic action”.

The record behind these values is patent US4487776A, “Azolyl-phenoxy-tetrahydrofuran-2-ylidene-methanes, a process for their preparation, and antimicrobial agents which contain these substances” (Bayer Aktiengesellschaft, priority 1982, dated 1984).
